This is an account of results in US12486253B2, “Therapeutics for the degradation of mutant BRAF” (C4 THERAPEUTICS, INC., priority 2021, dated 2025).

Structures are written as SMILES. Several values for one entry are separate records, joined by “and”; a condition that tells them apart may be missing. Equal values may be shown once.

The target in this experiment is BRAF V600E (Homo sapiens, UniProt P15056, V600E). Kind of experiment: HiBiT cellular BRAF^V600E degradation assay. It is filed as cell-based. Particulars: A375.10 cells, 24 h; for DC50: concentration at which 50% of total cellular BRAF^V600E is degraded; for Emax / HiBit 24 h Emax: residual protein remaining in the cell; for Emax: read-out: HiBit 24 h Emax. Background: HiBiT is a short tag that completes a luciferase, so light tracks the accessible tagged protein.
BRAF V600E, sequence (P15056 whole entry V600E): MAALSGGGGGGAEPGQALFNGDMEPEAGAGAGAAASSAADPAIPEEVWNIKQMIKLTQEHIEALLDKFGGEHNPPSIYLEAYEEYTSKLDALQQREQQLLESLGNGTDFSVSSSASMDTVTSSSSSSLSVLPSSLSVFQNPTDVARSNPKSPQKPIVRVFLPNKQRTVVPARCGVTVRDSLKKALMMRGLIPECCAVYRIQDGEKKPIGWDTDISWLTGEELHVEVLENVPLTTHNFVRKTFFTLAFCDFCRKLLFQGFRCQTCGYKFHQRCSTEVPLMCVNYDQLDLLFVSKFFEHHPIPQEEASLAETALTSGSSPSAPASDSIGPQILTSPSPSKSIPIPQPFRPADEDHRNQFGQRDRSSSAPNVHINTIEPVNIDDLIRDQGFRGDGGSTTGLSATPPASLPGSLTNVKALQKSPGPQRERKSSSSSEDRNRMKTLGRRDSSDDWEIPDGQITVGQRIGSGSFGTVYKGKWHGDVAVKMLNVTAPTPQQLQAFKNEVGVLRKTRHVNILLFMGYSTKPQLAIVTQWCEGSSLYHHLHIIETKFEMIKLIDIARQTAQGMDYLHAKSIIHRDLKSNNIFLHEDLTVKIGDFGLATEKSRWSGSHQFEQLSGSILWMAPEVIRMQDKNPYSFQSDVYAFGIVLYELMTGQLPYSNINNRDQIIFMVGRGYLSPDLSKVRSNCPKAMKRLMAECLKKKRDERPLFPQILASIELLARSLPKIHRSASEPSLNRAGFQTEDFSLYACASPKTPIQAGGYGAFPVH

One may read the DC50 as the midpoint of the concentration-degradation curve. Higher therefore signals a less potent degrader. Usually Emax stands for the greatest response seen or fitted, relative to the assay's reference. Turning to `CCN(C)S(=O)(=O)Nc1ccc(F)c(Oc2ccc3ncn([C@@H]4COC5(CCN(C(=O)CN6CCC(c7ccc(NC8CCC(=O)NC8=O)cc7F)CC6)CC5)C4)c(=O)c3c2)c1C#N` (single isomer, unassigned) [Example 33], it took 32.6 nM to reach half-maximal degradation (DC50) and the maximal response (Emax) turned out to be 8.77%.
In the same order, the values of `CCN(C)S(=O)(=O)Nc1ccc(F)c(Oc2ccc3ncn([C@H]4COC5(CCN(C(=O)CN6CCC(c7ccc(NC8CCC(=O)NC8=O)cc7F)CC6)CC5)C4)c(=O)c3c2)c1C#N` (single isomer, unassigned) [Example 34] are 29.9 nM and 10.8%.
In the same order, the values of `CCN(C)S(=O)(=O)Nc1ccc(F)c(Oc2ccc3ncn([C@H]4CCC5(CCN(C(=O)CN6CCC(c7ccc(NC8CCC(=O)NC8=O)cc7F)CC6)CC5)C4)c(=O)c3c2)c1C#N` (single isomer, unassigned) [Example 40] are 8.13 nM and 7.08%.
The like results for `CCN(C)S(=O)(=O)Nc1ccc(F)c(Oc2ccc3ncn([C@@H]4CCC5(CCN(C(=O)CN6CCC(c7ccc(NC8CCC(=O)NC8=O)cc7F)CC6)CC5)C4)c(=O)c3c2)c1C#N` (single isomer, unassigned) [Example 41] were, in that order, 16.1 nM and 9.27%.
As to `CCN(C)S(=O)(=O)Nc1ccc(F)c(Oc2ccc3ncn([C@H]4COC5(CCN(C(=O)CN6CCC(c7ccc(NC8CCC(=O)NC8=O)cc7F)CC6)CC5)C4)c(=O)c3c2Br)c1C#N` (single isomer, unassigned) [Example 73], the DC50 was 30.7 nM and the Emax came out at 12%.
Regarding `CCN(C)S(=O)(=O)Nc1ccc(F)c(Oc2ccc3ncn([C@H]4COC5(CCN(C(=O)CN6CCC(c7ccc(NC8CCC(=O)NC8=O)cc7F)CC6)CC5)C4)c(=O)c3c2Cl)c1C#N` (single isomer, unassigned) [Example 77], half-maximal degradation (DC50) was put at 31.8 nM and the Emax amounted to 9.51%.
In the same order, the values of `CCN(C)S(=O)(=O)Nc1ccc(F)c(Oc2ccc3ncn([C@@H]4COC5(CCN(C(=O)CN6CCC(c7ccc(NC8CCC(=O)NC8=O)cc7F)CC6)CC5)C4)c(=O)c3c2Cl)c1C#N` (single isomer, unassigned) [Example 78] are 49.7 nM and 9.7%.
In the same order, the values of `CCN(C)S(=O)(=O)Nc1ccc(F)c(Oc2ccc3ncn([C@H]4CCC5(CCN(C(=O)CN6CCC(c7ccc(NC8CCC(=O)NC8=O)cc7F)CC6)CC5)C4)c(=O)c3c2Cl)c1C#N` (single isomer, unassigned) [Example 79] are 20.1 nM and 12.9%.
In the same order, the values of `CCN(C)S(=O)(=O)Nc1ccc(F)c(Oc2ccc3ncn([C@@H]4CCC5(CCN(C(=O)CN6CCC(c7ccc(NC8CCC(=O)NC8=O)cc7F)CC6)CC5)C4)c(=O)c3c2Cl)c1C#N` (single isomer, unassigned) [Example 80] are 30.5 nM and 13.8%.
As for `CCN(C)S(=O)(=O)Nc1ccc(F)c(Nc2ccc3ncn([C@H]4COC5(CCN(C(=O)CN6CCC(c7ccc(NC8CCC(=O)NC8=O)cc7F)CC6)CC5)C4)c(=O)c3c2)c1C#N` (single isomer, unassigned) [Example 82], it took 20.7 nM to reach half-maximal degradation (DC50) and the Emax came to 6.45%.
In the case of `CCN(C)S(=O)(=O)Nc1ccc(F)c(Oc2ccc3ncn([C@H]4COC5(CCN(C6CCC(c7ccc(NC8CCC(=O)NC8=O)cc7F)CC6)CC5)C4)c(=O)c3c2)c1C#N` (single isomer, unassigned) [Example 83], the 50% degradation concentration (DC50) amounted to 16.3 nM and the “HiBit 24 h Emax” value is given as 27.77%.
For the molecule `CCN(C)S(=O)(=O)Nc1ccc(F)c(Oc2ccc3ncn([C@H]4COC5(CCN(C6CCC(c7ccc(NC8CCC(=O)NC8=O)cc7F)CC6)CC5)C4)c(=O)c3c2)c1C#N` (single isomer, unassigned) [Example 131], the “HiBit 24 h Emax” value is 8.5% and 8.05%.
Consider `CCN(C)S(=O)(=O)Nc1ccc(F)c(Oc2ccc3ncn(C4COC5(CCN(C(=O)CN6CCC(c7ccc8c(C9CCC(=O)NC9=O)nn(C)c8c7)CC6)CC5)C4)c(=O)c3c2)c1C#N` (single isomer, unassigned) [Example 150], for which the DC50 was found to be 12.4 nM and the Emax worked out at 11.5%.
In the same order, the values of `CCN(C)S(=O)(=O)Nc1ccc(F)c(Oc2ccc3ncn([C@H]4COC5(CCN(C(=O)C[C@H]6CC[C@H](c7ccc8c(C9CCC(=O)NC9=O)nn(C)c8c7)CC6)CC5)C4)c(=O)c3c2)c1C#N` (single isomer, unassigned) [Example 169] are 11.9 nM and 31.5%.
For `CCN(C)S(=O)(=O)Nc1ccc(F)c(Oc2ccc3ncn([C@H]4COC5(CCN(C(=O)C[C@H]6CC[C@@H](c7ccc8c(C9CCC(=O)NC9=O)nn(C)c8c7)CC6)CC5)C4)c(=O)c3c2)c1C#N` (single isomer, unassigned) [Example 170], the DC50 is 30.9 nM and the Emax is 21.2%.
The like results for `CCN(C)S(=O)(=O)Nc1ccc(F)c(Oc2ccc3ncn([C@H]4COC5(CCN(C(=O)CC6(O)CCN(c7cc8c(cc7F)c(N7CCC(=O)NC7=O)nn8C)CC6)CC5)C4)c(=O)c3c2F)c1C#N` (single isomer, unassigned) [Example 174] were, in that order, 25.6 nM and 21.2%.
On to `CCN(C)S(=O)(=O)Nc1ccc(F)c(Nc2ccc3ncn([C@H]4COC5(CCN(C(=O)CC6(O)CCN(c7cc8c(cc7F)c(N7CCC(=O)NC7=O)nn8C)CC6)CC5)C4)c(=O)c3c2)c1C#N` (single isomer, unassigned) [Example 178], for which the DC50 was determined as 6.13 nM and the Emax was determined as 19.1%.
The like results for `CCN(C)S(=O)(=O)Nc1ccc(F)c(Oc2ccc3ncn([C@H]4COC5(CCN(C(=O)CC6(O)CCN(c7cc8c(cc7F)c(N7CCC(=O)NC7=O)nn8C)CC6)CC5)C4)c(=O)c3c2OC)c1C#N` (single isomer, unassigned) [Example 181] were, in that order, 19.9 nM and 19.1%.
Turning to `CCN(C)S(=O)(=O)Nc1ccc(F)c(Nc2ccc3ncn([C@H]4COC5(CCN(C(=O)CC6(O)CCN(c7cc8c(cc7F)c(N7CCC(=O)NC7=O)nn8C)CC6)CC5)C4)c(=O)c3c2F)c1C#N` (single isomer, unassigned) [Example 184], the DC50 was found to be 8.55 nM and the Emax is 18%.
In the same order, the values of `CCN(C)S(=O)(=O)Nc1ccc(F)c(Nc2ccc3ncn([C@H]4COC5(CCN(C(=O)CC6(O)CCN(c7cc8c(cc7F)c(N7CCC(=O)NC7=O)nn8C)CC6)CC5)C4)c(=O)c3c2Cl)c1C#N` (single isomer, unassigned) [Example 185] are 5.77 nM and 18.5%.
The like results for `CCN(C)S(=O)(=O)Nc1ccc(F)c(Nc2ccc3ncn([C@H]4COC5(CCN(C(=O)CC6CCN(c7cc8c(cc7F)c(N7CCC(=O)NC7=O)nn8C)CC6)CC5)C4)c(=O)c3c2F)c1C#N` (single isomer, unassigned) [Example 202] were, in that order, 5.17 nM and 23.9%.
The like results for `CCN(C)S(=O)(=O)Nc1ccc(F)c(Oc2ccc3ncn([C@H]4COC5(CCN(C(=O)CN6CC[C@H](c7cc8c(cc7F)c(N7CCC(=O)NC7=O)nn8C)C(F)(F)C6)CC5)C4)c(=O)c3c2)c1C#N` (single isomer, unassigned) [Example 203] were, in that order, 37.5 nM and 11.3%.
In the case of `CCN(C)S(=O)(=O)Nc1ccc(F)c(Oc2ccc3ncn([C@H]4COC5(CCN(C(=O)CN6CC[C@@H](c7cc8c(cc7F)c(N7CCC(=O)NC7=O)nn8C)C(F)(F)C6)CC5)C4)c(=O)c3c2)c1C#N` (single isomer, unassigned) [Example 204], the DC50 is 29.8 nM and the maximal response (Emax) was 10.9%.
Consider `CCN(C)S(=O)(=O)Nc1ccc(F)c(Oc2ccc3ncc(C4COC5(CCN(C(=O)CC6(O)CCN(c7cc8c(cc7F)c(N7CCC(=O)NC7=O)nn8C)CC6)CC5)C4)nc3c2)c1C#N` (single isomer, unassigned) [Example 222], for which half-maximal degradation (DC50) was put at 20 nM and the Emax was found to be 24.4%.
`CCN(C)S(=O)(=O)Nc1ccc(F)c(Oc2ccc3ncc([C@H]4COC5(CCN(C(=O)CC6(O)CCN(c7cc8c(cc7F)c(N7CCC(=O)NC7=O)nn8C)CC6)CC5)C4)c(OC)c3c2)c1C#N` (single isomer, unassigned) [Example 225]: the half-maximal degradation concentration (DC50) was more than 5000 nM and the maximum response (Emax) worked out at 65.3%.
The like results for `CCN(C)S(=O)(=O)Nc1ccc(F)c(Oc2ccc3ncc([C@@H]4COC5(CCN(C(=O)CC6(O)CCN(c7cc8c(cc7F)c(N7CCC(=O)NC7=O)nn8C)CC6)CC5)C4)c(OC)c3c2)c1C#N` (single isomer, unassigned) [Example 226] were, in that order, 39.4 nM and 28.2%.
In the case of `CCN(C)S(=O)(=O)Nc1ccc(F)c(Oc2ccc3ncn(-c4cnc(N5CCN(C(=O)CN6CCC(c7ccc(NC8CCC(=O)NC8=O)cc7F)CC6)CC5)nc4)c(=O)c3c2N)c1C#N` (stereo in doubt) [Example 102, 5-amino-6-[2-cyano-3-[[ethyl(methyl)sulfamoyl]amino]-6-fluorophenoxy]-3-[2-[4-[2-[4-[4-[[(3S)-2,6-dioxopiperidin-3-yl]amino]-2-fluorophenyl]piperidin-1-yl]acetyl]piperazin-1-yl]pyrimidin-5-yl]-4-oxoquinazoline], it took 15 nM to reach half-maximal degradation (DC50) and the “HiBit 24 h Emax” value amounted to 9.75%.
For `CCN(C)S(=O)(=O)Nc1ccc(F)c(Oc2ccc3ncn(CCC4CCN(C(=O)CN5CCC(c6ccc(NC7CCC(=O)NC7=O)cc6F)CC5)CC4)c(=O)c3c2)c1C#N` (stereo not drawn) [Example 1, 6-[2-cyano-3-[[ethyl(methyl)sulfamoyl]amino]-6-fluorophenoxy]-3-[2-[1-[2-[4-[4-[(2,6-dioxopiperidin-3-yl)amino]-2-fluorophenyl]piperidin-1-yl]acetyl]piperidin-4-yl]ethyl]-4-oxoquinazoline], half-maximal degradation (DC50) was put at 46.9 nM and the Emax was 13.9%.
As for `CCN(C)S(=O)(=O)Nc1ccc(F)c(Oc2ccc3ncn(CCC4CCN(C(=O)CN5CCC(c6ccc(C7CCC(=O)NC7=O)cc6F)CC5)CC4)c(=O)c3c2)c1C#N` (stereo not drawn) [Example 2, 6-[2-cyano-3-[[ethyl(methyl)sulfamoyl]amino]-6-fluorophenoxy]-3-[2-[1-[2-[4-[4-(2,6-dioxopiperidin-3-yl)-2-fluorophenyl]piperidin-1-yl]acetyl]piperidin-4-yl]ethyl]-4-oxoquinazoline], the 50% degradation concentration (DC50) was 48.6 nM and the Emax came out at 13.5%.
